# Measurements taken from US20240417407A1, “FUROINDAZOLE DERIVATIVES AS GPR84 ANTAGONISTS” (Bayer Aktiengesellschaft, priority 2021, published 2024).
# Target: T1, human GPR84 receptor (Homo sapiens, UniProt Q9NQS5)
# T1 construct: frozen aliquots prepared by acCELLerate; host or cells: CHO-K1
# Test: cAMP HTRF assay for identification of cellular GPR84 antagonists
# Format: cell-based
# Details: CHO-K1 cells stably expressing human GPR84; Forskolin plus agonist 6-OAU; cAMP HTRF readout; average or median values
# From the text: cAMP HTRF® Assay for Identification of Cellular GPR84 Antagonists
# By using a Homogenous Time-Resolved Fluorescence (HTRF®) based assay (#62AM5PEJ, Cisbio, Condolet, France) the inhibition of the Gi-coupled GPR84 receptor can be detected. CHO-K1 cells stably expressing human GPR84 receptor (purchased from DiscoveRx, now Eurofins) were used and treated with Forskolin (F6886, Sigma, Germany) to stimulate membrane adenylyl cyclases and thereby unspecific cAMP formation. Activation of the Gi-coupled GPR84 by a natural or small molecule agonist (e.g. 6-n-octyl aminouracile, inhouse) results in inhibition of cellular cAMP formation which can be released again by antagonists to this receptor. Detection and quantification of cellular cAMP levels in this HTRF assay is achieved by interaction between a fluorescent cAMP tracer (cAMP-d2) and an Eu-cryptate labelled anti-cAMP antibody. Following excitation at 337 nm this pairing allows for the generation of a fluorescence resonance energy transfer (FRET) between the partners and results in FRET induced emissions at 665 nm and 620 nm, the latter representing background signal by Eu-cryptate labelled anti-cAMP antibody. Maximal signal is obtained in the absence of any cellular cAMP (no competition for the binding of the tracer to the antibody). Given the combination of the Gi coupling properties of GPR84 and the competitive nature of the detection system agonist treatment should result in an increase in the HTRF signal due to lowered cAMP levels. Any signal decrease in the presence of Forskolin, agonist and compound is indicative of antagonist mediated abrogation of GPR84 signalling.
# For the assay, frozen aliquots of CHO-K1 cells expressing hGPR84 (prepared by acCELLerate, Hamburg, Germany) were thawed and a cell suspension (1.67E+06 cells/mL) in assay media (Ham's F12 Nutrient Mix, Thermo Fisher Scientific, Waltham, USA; 5% fetal calf serum, Biomol, Hamburg, Germany) containing cAMP-d2 (dilution 1:20, supplied with the kit #62AM5PEJ, Cisbio, Condolet, France) was prepared. After recovery of cells for 20 minutes at 37° C., 3 μL/well cell suspension including cAMP-d2 were added to a pre-dispensed assay plate (Greiner Bio-One, Kremsmuenster, Austria) containing 50 nl/well test compound in 100% DMSO or 100% DMSO as control. This was followed by a 30 minutes incubation step at room temperature. […] The reaction was stopped by addition of 3 μL/well lysis buffer containing cAMP Eu-Cryptate antibody (dilution 1:20) (both supplied with the kit #62AM5PEJ, Cisbio, Condolet, France). To enable complete lysis, plates were incubated for 60 minutes at room temperature before measurement in an HTRF reader, e.g. a PHERAstar (BMG Labtech, Ortenberg, Germany).
# From the fluorescence emissions at 665 nm (FRET) and at 620 nm (background signal of Eu-cryptate) the ratio (emission at 665 nm divided by emission at 620 nm×10000) was calculated and the data were normalized (reaction without test compound, only 100% DMSO=0% inhibition; all other assay components except agonist=100% inhibition). For dose response testing on the same microtiter plate, compounds were tested at 11 different concentrations in the range of 20 μM to 0.07 nM (20 μM, 5.7 μM, 1.6 μM, 0.47 μM, 0.13 μM, 38 nM, 11 nM, 3.1 nM, 0.89 nM, 0.25 and 0.07 nM; dilution series prepared before the assay at the level of the 100-fold conc. stock solutions by serial 1:3.5 dilutions in 100% DMSO) in duplicate values for each concentration. IC50 values were calculated by 4-parameter fitting using a commercial software package (Genedata Screener, Basel, Switzerland).
# Examples were tested in selected biological assays one or more times. […]
# T1 sequence (Q9NQS5 whole entry): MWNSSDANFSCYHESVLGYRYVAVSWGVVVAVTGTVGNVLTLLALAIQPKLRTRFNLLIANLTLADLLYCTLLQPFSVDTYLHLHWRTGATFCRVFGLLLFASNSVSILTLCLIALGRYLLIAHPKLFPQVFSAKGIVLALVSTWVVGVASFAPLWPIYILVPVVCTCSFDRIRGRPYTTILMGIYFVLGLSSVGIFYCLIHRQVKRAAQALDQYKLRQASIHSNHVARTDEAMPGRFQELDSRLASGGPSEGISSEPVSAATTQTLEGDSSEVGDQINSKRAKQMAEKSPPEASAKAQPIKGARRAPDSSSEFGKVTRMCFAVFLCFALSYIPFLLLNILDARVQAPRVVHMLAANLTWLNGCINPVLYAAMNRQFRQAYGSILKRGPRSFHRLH
row,SMILES,IC50 [nM]
1,CS(=O)(=O)CCNC(=O)c1oc2ccc3cn(C[C@H]4COCCO4)nc3c2c1C(F)(F)F [Example 9],3490
2,O=C(NCc1ncccn1)c1oc2ccc3cn(C[C@H]4COCCO4)nc3c2c1C(F)(F)F [Example 14],48
3,N#Cc1ccc(CNC(=O)c2oc3ccc4cn(C[C@H]5COCCO5)nc4c3c2C(F)(F)F)nc1 [Example 22],13
4,"Cc1ccnc(CNC(=O)c2oc3ccc4cn(C[C@H]5COCCO5)nc4c3c2C(F)(F)F)c1 [Example 19, 2-{[(2S)-1,4-dioxan-2-yl]methyl}-N-[(4-methylpyridin-2-yl)methyl]-8-(trifluoromethyl)-2H-furo[2,3-g]indazole-7-carboxamide]",53
5,CC1(C)COC(CNC(=O)c2oc3ccc4cn(C[C@H]5COCCO5)nc4c3c2C(F)(F)F)C1 (mixture of isomers) [Example 5],9
6,O=C(NC[C@@H]1CCCO1)c1oc2ccc3cn(C[C@H]4COCCO4)nc3c2c1C(F)(F)F [Example 2],7
